Source: PubChem BioAssay (NCI)
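At the GI50, growth is halved. Definition used: TGI = concentration required for complete inhibition of growth.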

How the values were obtained:
Assay in all cases: growth of human tumour cells (NCI), 384-well format
[1] = tested on: HOP-62 NSCLC
[2] = tested on: MDA-MB-435 melanoma
[3] = tested on: PC-3 prostate
[4] = tested on: OVCAR-8 ovarian
[5] = tested on: SK-MEL-28 melanoma
[6] = tested on: T-47D breast
[7] = tested on: SN12C renal
[8] = tested on: EKVX NSCLC
[9] = tested on: RXF 393 renal
[10] = tested on: LOX IMVI melanoma
[11] = tested on: HOP-92 NSCLC
[12] = tested on: OVCAR-3 ovarian
[13] = tested on: SK-MEL-2 melanoma
[14] = tested on: KM12 colon
[15] = tested on: HCT-15 colon
[16] = tested on: HL-60(TB) leukemia
[17] = tested on: HCC-2998 colon
[18] = tested on: SW-620 colon
[19] = tested on: SNB-75 CNS
[20] = tested on: NCI-H322M lung
[21] = tested on: HT29 colon
[22] = tested on: CAKI-1 renal
[23] = tested on: IGROV1 ovarian
[24] = tested on: 786-0 renal
[25] = tested on: OVCAR-5 ovarian
[26] = tested on: A498 renal
[27] = tested on: MOLT-4 leukemia
[28] = tested on: UACC-257 melanoma
[29] = tested on: UACC-62 melanoma
[30] = tested on: SF-539 CNS
[31] = tested on: K-562 leukemia
[32] = tested on: ACHN renal
[33] = tested on: SK-OV-3 ovarian
[34] = tested on: M14 melanoma
[35] = tested on: HS 578T breast
[36] = tested on: TK-10 renal
[37] = tested on: U251 glioblastoma
[38] = tested on: NCI-H23 lung
[39] = tested on: NCI/ADR-RES ovarian
[40] = tested on: MDA-MB-468 breast
[41] = tested on: MCF7 breast
[42] = tested on: UO-31 renal
[43] = tested on: NCI-H522 lung
[44] = tested on: DU-145 prostate
[45] = tested on: OVCAR-4 ovarian
[46] = tested on: SR leukemia
[47] = tested on: SK-MEL-5 melanoma
[48] = tested on: SF-268 CNS
[49] = tested on: A549 NSCLC
[50] = tested on: NCI-H226 lung
[51] = tested on: MALME-3M melanoma
[52] = tested on: RPMI-8226 leukemia
[53] = tested on: HCT-116 colon
[54] = tested on: SF-295 CNS
[55] = tested on: MDA-MB-231 breast
[56] = tested on: BT-549 breast
[57] = tested on: SNB-19 CNS
[58] = tested on: NCI-H460 NSCLC

Work on `Cc1cnc(-c2ccc(-c3ccc(NC(=O)Nc4cccc(C(F)(F)F)c4)cc3F)c3c2C(=O)NC3)[nH]1` yielded a GI50 [1] of 0.103 µM, a TGI [1] of 2.03 µM and a GI50 [2] of 1.27 µM. For the same molecule, the TGI [2] was 10.1 µM, the GI50 [3] was 1.96 µM and the TGI [3] was 5.35 µM. For the same molecule, the GI50 [4] was 1.21 µM, the TGI [4] was 10.5 µM and the GI50 [5] was 1.3 µM. The TGI [5] was 12.2 µM, the GI50 [6] was 2.06 µM and the TGI [6] was 6.71 µM. For the same molecule, the GI50 [7] was 0.0755 µM, the TGI [7] was 2.27 µM and the GI50 [8] was 0.0917 µM. The TGI [8] was 4.16 µM, the GI50 [9] was 0.923 µM and the TGI [9] was 3.4 µM. For the same molecule, the GI50 [10] was 0.444 µM, the TGI [10] was 2.37 µM and the GI50 [11] was 0.685 µM. The TGI [11] was 3.31 µM, the GI50 [12] was 0.0755 µM and the TGI [12] was 2.11 µM. The GI50 [13] was 0.751 µM, the TGI [13] was 3.24 µM and the GI50 [14] was < 0.01 µM. The TGI [14] was 1.32 µM, the GI50 [15] was 0.926 µM and the TGI [15] was 4.45 µM. For the same molecule, the GI50 [16] was 0.0162 µM, the TGI [16] was 1.05 µM and the GI50 [17] was 2.86 µM. The TGI [17] was 6.7 µM, the GI50 [18] was 0.0835 µM and the TGI [18] was 3.64 µM. For the same molecule, the GI50 [19] was 1.13 µM, the TGI [19] was 2.66 µM and the GI50 [20] was 7.12 µM. For the same molecule, the TGI [20] was 26.5 µM, the GI50 [21] was 2.18 µM and the TGI [21] was 13.6 µM. It also gave a GI50 [22] of 0.145 µM, a TGI [22] of 8.83 µM and a GI50 [23] of 1.32 µM. The TGI [23] was 12.4 µM, the GI50 [24] was 1.47 µM and the TGI [24] was 3.73 µM. It also gave a GI50 [25] of 5.69 µM, a TGI [25] of 22.7 µM and a GI50 [26] of 0.134 µM. For the same molecule, the TGI [26] was 2.21 µM, the GI50 [27] was < 0.01 µM and the TGI [27] was 0.0117 µM. The GI50 [28] was 1.73 µM, the TGI [28] was 9.25 µM and the GI50 [29] was 0.276 µM. The TGI [29] was 4.73 µM, the GI50 [30] was 0.0609 µM and the TGI [30] was 1.74 µM. For the same molecule, the GI50 [31] was 0.0516 µM, the TGI [31] was 1.3 µM and the GI50 [32] was 0.681 µM. The TGI [32] was 10.3 µM, the GI50 [33] was 0.926 µM and the TGI [33] was 4.14 µM. The GI50 [34] was 0.126 µM, the TGI [34] was 3.18 µM and the GI50 [35] was 0.0503 µM. The TGI [35] was 1.53 µM, the GI50 [36] was 1.05 µM and the TGI [36] was 4.47 µM. It also gave a GI50 [37] of 1.34 µM, a TGI [37] of 3.17 µM and a GI50 [38] of 0.783 µM. For the same molecule, the TGI [38] was 2.39 µM, the GI50 [39] was 24 µM and the TGI [39] was > 100 µM. For the same molecule, the GI50 [40] was 0.0282 µM, the TGI [40] was 0.0754 µM and the GI50 [41] was 1.08 µM. The TGI [41] was 4.28 µM, the GI50 [42] was 0.0817 µM and the TGI [42] was 1.46 µM. The GI50 [43] was 0.0345 µM, the TGI [43] was 1.6 µM and the GI50 [44] was 1.27 µM. The TGI [44] was 7.71 µM, the GI50 [45] was 0.0965 µM and the TGI [45] was 2.66 µM. For the same molecule, the GI50 [46] was < 0.01 µM, the TGI [46] was 0.0144 µM and the GI50 [47] was 1.01 µM. The TGI [47] was 4.35 µM, the GI50 [48] was 0.261 µM and the TGI [48] was 3 µM. The GI50 [49] was 1.05 µM, the TGI [49] was 6.4 µM and the GI50 [50] was 0.284 µM. It also gave a TGI [50] of 3.15 µM, a GI50 [51] of 0.59 µM and a TGI [51] of 3.82 µM. The GI50 [52] was 0.031 µM, the TGI [52] was 1.49 µM and the GI50 [53] was 0.248 µM. The TGI [53] was 2.22 µM, the GI50 [54] was 0.0933 µM and the TGI [54] was 4.69 µM. For the same molecule, the GI50 [55] was 1.68 µM, the TGI [55] was 8.56 µM and the GI50 [56] was 0.13 µM. The TGI [56] was 2.82 µM, the GI50 [57] was 1.7 µM and the TGI [57] was 4.54 µM. For the same molecule, the GI50 [58] was 0.0381 µM and the TGI [58] was 1.36 µM.
